In US20070098636A1, “Method of identifying responders to treatment with insulin sensitizers” (priority 2003, published 2007):

Experiments:
db/db mice = assay: Adiponectin complex distribution in serum of treated db/db mice (velocity sedimentation, quantitative Western blot); assay type: in vivo, mouse; settings: male db/db mice, 10 mg/kg-day by gavage, following 11 days of treatment
Method: (§1) Velocity sedimentation/gel filtration chromatography for separation of adiponectin complexes—5-20% sucrose gradients in 10 mM HEPES pH 8, 125 mM NaCl were poured stepwise (5%, 10%, 15%, 20%) in 2-ml thin-walled ultracentrifuge tubes (Becton Dickinson) and allowed to equilibrate overnight at 4° C. Following layering of the sample on top (diluted 1:10 with 10 mM HEPES pH 8, 125 mM NaCl in the case of serum), the gradients were spun at 55,000 RPM for four hours at 4° C. in a TLS55 rotor in a Beckman TL-100 tabletop ultracentrifuge. 150 μL gradient fractions were sequentially retrieved from the top of the gradient and analyzed by quantitative Western blot analysis.
(§2) Immunoblotting—Separation of proteins by SDS-PAGE, fluorography, and immunoblotting were performed as described previously (20). Primary and secondary antibodies were diluted in TBS with 0.05% Tween-20 and 1% BSA. Horseradish peroxidase conjugated secondary antibodies were detected with enhanced chemiluminescence according to the manufacturer's instructions (Pierce). For quantitative Western blotting, proteins were transferred to BA83 nitrocellulose (Schleicher & Schuell) after SDS-PAGE. […] Blots were analyzed with a Phosphoimager (Molecular Dynamics) and fractions 4-6 and 9-11 from velocity sedimentation (LMW and […] adiponectin, respectively) were quantitated with Imagequant Software. […]

non-diabetic human males = assay: Human Clinical Study A: plasma adiponectin and adiponectin complexes pre- and post-treatment; assay type: in vivo; settings: 4 mg bid for 14 days
Method: as §1, §2

SMILES: CN(CCOc1ccc(CC2SC(=O)NC2=O)cc1)c1ccccn1 (stereo not drawn) [rosiglitazone]
- percentage of adiponectin found in the high molecular weight (HMW) form (db/db mice): approximately 45 % of total circulating adiponectin
- total adiponectin relative to placebo (non-diabetic human males): about 2 fold
- HMW/total adiponectin ratio, post-treatment value (non-diabetic human males; pre-treatment value 20-25%): 45-50%
